Measured values: US20260232652A1, “COMBINATIONS OF DGK (DIACYLGLYCEROL KINASE) INHIBITORS” (priority 2023, published 2026)

Key:
human DGKalpha = target: T1, human DGKalpha (Homo sapiens, UniProt P23743); assay: Human DGKalpha kinase activity inhibition assay (ADP-Glo); format: biochemical; conditions: read-out: IC50 hDGKa
T1 construct: made in house; host or cells: baculovirus-infected Sf9 insect cells
Method: Human DGKalpha inhibitory activity of compounds of the present invention was quantified employing the human DGKalpha kinase activity assay as described in the following paragraphs. In essence, the enzyme activity was measured by quantification of the adenosine-di-phosphate (ADP) generated as a co-product of the enzyme reaction via the “ADP-Glo™ Kinase Assay” kit from the company Promega. This detection system works as follows: In a first step the ATP not consumed in the kinase reaction is quantitatively converted to cAMP employing an adenylate cyclase (“ADP-Glo-reagent”), then the adenylate cyclase is stopped and the ADP generated in the kinase reaction converted to ATP, which subsequently generates in a luciferase-based reaction a glow-luminescence signal (“Kinase Detection Reagent”).
C-terminally FLAG-tagged, recombinant full-length human DGKalpha (expressed in baculovirus infected insect cells, purified using anti-Flag pulldown and size exclusion chromatography as described below, DGKa_hu_1) was used as enzyme. As substrate for the kinase 1,2-dioleoyl-sn-glycerol, reconstituted in octyl-β-D-glucopyranoside micelles, was used. […] Then 35 volumes of 50 mM MOPS buffer (pH 7.4) were added to yield a solution of 0.28 mM 1,2 dioleoyl-sn-glycerol and 200 mM octyl-β-D-glucopyranoside, which was aliquoted, flash-frozen in liquid nitrogen, and stored at −20° C. until use.
For the assay 50 nl of a 100-fold concentrated solution of the test compound in dimethyl sulfoxide (DMSO, Sigma) was pipetted into either a white 1536-well or a white low-volume 384-well microtiter plate (both Greiner Bio-One, Frickenhausen, Germany). […] The concentration of DGKα was adjusted depending of the activity of the enzyme lot and was chosen appropriate to have the assay in the linear range, a typical concentration is about 0.1 nM. The reaction was stopped by the addition of […] of “ADP-Glo-reagent” (1 to 1.5 diluted with water) and the resulting mixture was incubated at 22° C. for 1 h to convert the ATP not consumed in the kinase reaction completely to cAMP. […] The amount of emitted light was taken as a measure for the amount of ADP generated and thereby for the activity of the DGKα.

IFN-γ = IFN-γ secretion in Colo-800 / MART1 T cell co-culture (ELISA); format: cell-based, human; conditions: monotherapy 50 nM; 72 hours after start of co-culture
[1] = tested on: EMT6 murine breast carcinoma cells; assay: Syngeneic EMT6 murine breast carcinoma model (Example 4); format: in vivo; conditions: EMT6 s.c. in Balb/c mice; DGKalpha inhibitor A 3 mg/kg QD, DGKzeta inhibitor A′ 5 mg/kg QD, plus isotype control 5 mg/kg Q3/4D; treatment day 8 to 23
Method: EMT6 murine breast carcinoma cells were inoculated s.c. into Balb/c mice (n=10/group). […] Q3/4D, every third or fourth day; QD, once daily. […] The following eight treatment groups are included: Polyethylene glycol 400 (PEG)/ethanol (EtOH)/water (60/10/30). • 1. Anti-PD-L1 (TPP-3911, 5 mg/kg) i.p., q3/4d • 2. […] DGKzeta inhibitor A' (5 mg/kg) p.o., q.d.+Isotype control (5 mg/kg) i.p., q3/4d • 4. […] Vehicle as described supra, q.d. Mice were assigned to a study at the age of 6-8 weeks. Animal husbandry, feeding and health conditions were according to animal welfare guidelines. EMT6 cell line was cultivated with appropriate medium and split at least 3 times before inoculation. Female Balb/c mice were inoculated subcutaneously with 5×10>5 tumor cells in a medium/matrigel mixture ratio of 1:1. After 8 days the mice were randomized, and therapeutic treatment started when tumors had reached a size of approx. 40-mm^2. Tumor size was measured using calipers determining length (a) and width (b), for results see FIG. 5. Tumor volume was calculated according to: […]

MC38 mouse model = assay: MC38 mouse model, tumor volume, survival and re-challenge (Example 6); format: in vivo; conditions: for inhibition of tumor growth: 3 mg/kg p.o. QD each, versus control group; for Tumor volume: each agent 3 mg/kg, antibodies i.p. BIWx4, DGK inhibitors p.o. QD
Method: In order to study triple combinations or quadruple combinations with anti-CCR8 antibodies, at least one DGK inhibitor and an anti-PD(L)1 antibody, multiple experiments were performed. In order to see the differences in efficacy, the administered amounts for each individual compound or antibody were reduced to 3 mg/kg to avoid full efficacy in a monotherapy setup and to be able to evaluate the efficacy for triple and quadruple combination therapy.
Efficacy in a MC38 mouse model was analyzed in groups with 10 mice each and is shown in Table 6.1 and FIGS. 8, 9 and 10. • TPP-15285 (mIgG2a) is a surrogate antibody for anti-CCR8 antibody TPP-23411 and induces both, ADCC and ADCP. TPP-15285 was administered i.p. at 3 mg/kg with a BIWx4 administration scheme. • TPP-10748 (Iso Ctrl aCCR8) served as isotype control for TPP-15285 (mIgG2a) and was administered i.p. at 3 mg/kg with a BIWx4 administration scheme. • TPP-3911 (Atezo, mIgG1) was used as anti-PD(L)1 antibody (e.g. pembrolizumab surrogate) and was administered i.p. at 3 mg/kg with a BIWx4 administration scheme. • TPP-3267 or TPP-10149 (mIgG1) served as isotype control for anti-PD(L)1 antibody TPP-3911 (mIgGa) and were abbreviated Iso Ctrl aPD(L)1.
Antibody treatment was started on ~day 7 after tumor inoculation at ~80-100 mm^3 tumor volume, i.e. antibody administration occurred on days 7, 10, 14 and 17, after tumor inoculation. DGK inhibitor treatment started two days after the first antibody administration, i.e. on ~day 9 after tumor inoculation, i.e. DGK inhibitor was administered on day 9, 10, 11, 12, 13, 14, 15, 16, 17, 18, 19, 20 and 21 after tumor inoculation. Tumor growth inhibition was measured until tumors reached a size of 1100 mm^3 (approx. Day 20 after tumor inoculation).

[2] = 4 days after start of treatment
[3] = 7 days after start of treatment
[4] = 10 days after start of treatment
[5] = 12 days after start of treatment
[6] = 14 days after start of treatment
[7] = 17 days after start of treatment
[8] = −1 days after start of treatment (6 days after start of transplantation)

T1 sequence (P23743 whole entry): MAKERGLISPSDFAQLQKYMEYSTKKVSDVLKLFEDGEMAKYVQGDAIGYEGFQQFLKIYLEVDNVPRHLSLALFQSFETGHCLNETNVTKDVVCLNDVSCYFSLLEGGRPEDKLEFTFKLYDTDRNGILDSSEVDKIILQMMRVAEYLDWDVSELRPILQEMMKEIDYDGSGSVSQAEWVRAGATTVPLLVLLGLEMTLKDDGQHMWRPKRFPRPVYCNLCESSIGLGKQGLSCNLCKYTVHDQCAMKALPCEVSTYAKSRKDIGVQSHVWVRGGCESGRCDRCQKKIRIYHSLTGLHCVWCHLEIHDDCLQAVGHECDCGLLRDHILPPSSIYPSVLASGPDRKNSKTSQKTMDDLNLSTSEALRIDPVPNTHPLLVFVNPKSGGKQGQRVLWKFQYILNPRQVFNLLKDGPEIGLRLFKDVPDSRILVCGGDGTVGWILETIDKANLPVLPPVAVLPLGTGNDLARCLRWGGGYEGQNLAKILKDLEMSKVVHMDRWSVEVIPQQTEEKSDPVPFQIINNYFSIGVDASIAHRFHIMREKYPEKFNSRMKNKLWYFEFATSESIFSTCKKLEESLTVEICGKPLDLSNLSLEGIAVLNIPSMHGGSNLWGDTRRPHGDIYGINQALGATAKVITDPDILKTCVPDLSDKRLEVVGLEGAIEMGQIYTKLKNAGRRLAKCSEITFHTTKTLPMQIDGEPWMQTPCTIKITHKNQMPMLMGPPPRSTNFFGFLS

Structure (SMILES)	IC50 (human DGKalpha)	increase in IFN-γ secretion (IFN-γ)	tumor growth inhibition [1]	inhibition of tumor growth (MC38 mouse model)	Tumor volume (MC38 mouse model; [2])	Tumor volume (MC38 mouse model; [3])	Tumor volume (MC38 mouse model; [4])	Tumor volume (MC38 mouse model; [5])	Tumor volume (MC38 mouse model; [6])	Tumor volume (MC38 mouse model; [7])	Tumor volume (MC38 mouse model; [8])
Cc1ccc2oc(C3CCN(c4c(C(N)=O)c(=O)n(C)c5ccc(F)cc45)CC3)nc2c1 [DGKalpha inhibitor A, 6-fluoro-1-methyl-4-[4-(5-methyl-1,3-benzoxazol-2-yl)piperidin-1-yl]-2-oxo-1,2-dihydroquinoline-3-carboxamide]	0.25 nM	slight	only moderate tumor growth inhibitions	only moderate inhibition of tumor growth	134.0 mm^3	207.0 mm^3	412.4 mm^3	524.8 mm^3	735.4 mm^3	1122.5 mm^3	62.0 mm^3
COc1ccc(C(=O)c2sc(N(c3ccc(F)cc3)[C@H](C)C(N)=O)nc2N)cc1 [DGKzeta inhibitor A′, (R)-2-(N-[4-amino-5-(4-methoxybenzoyl)thiazol-2-yl]-4-fluoro-anilino)propanamide]	> 3630 nM	moderate	only moderate tumor growth inhibitions	only moderate inhibition of tumor growth	115.9 mm^3	211.9 mm^3	322.0 mm^3	508.0 mm^3	684.4 mm^3	1097.3 mm^3	62.4 mm^3
